Data published in ChEMBL document CHEMBL1143836, “Predictors of mortality in patients with bloodstream infections caused by extended-spectrum-beta-lactamase-producing Enterobacteriaceae: importance of inadequate initial antimicrobial treatment” (2007).
Converted amounts (≈) assume the structure as drawn.

How the values were obtained:
Proteus mirabilis [1] = experiment: Antimicrobial activity against extended-spectrum-beta-lactamase producing Proteus mirabilis assessed as percent resistant isolates; format: functional
Klebsiella pneumoniae [2] = experiment: Antimicrobial activity against extended-spectrum-beta-lactamase producing Klebsiella pneumoniae isolates; format: functional
Klebsiella pneumoniae [3] = experiment: Antimicrobial activity against extended-spectrum-beta-lactamase producing Klebsiella pneumoniae assessed as percent susceptible isolates
Escherichia coli [4] = experiment: Antimicrobial activity against extended-spectrum-beta-lactamase producing Escherichia coli isolates; format: functional
Proteus mirabilis [5] = experiment: Antimicrobial activity against extended-spectrum-beta-lactamase producing Proteus mirabilis isolates; format: functional
Escherichia coli [6] = experiment: Antimicrobial activity against extended-spectrum-beta-lactamase producing Escherichia coli assessed as percent resistant isolates; format: functional

| Structure (SMILES) | Activity (Proteus mirabilis [1]) | MIC50 (Klebsiella pneumoniae [2]) | MIC90 (Klebsiella pneumoniae [2]) | Activity (Klebsiella pneumoniae [3]) | MIC50 (Escherichia coli [4]) | MIC90 (Escherichia coli [4]) | MIC50 (Proteus mirabilis [5]) | MIC90 (Proteus mirabilis [5]) | Activity (Escherichia coli [6]) |
| --- | --- | --- | --- | --- | --- | --- | --- | --- | --- |
| C[C@H]1[C@H](NC(=O)/C(=N\OC(C)(C)C(=O)O)c2csc(N)n2)C(=O)N1S(=O)(=O)O (stereo in doubt) [AZTREONAM] | 0% | 256 µg/mL (≈ 588 µM) | 256 µg/mL (≈ 588 µM) | 0% | 256 µg/mL (≈ 588 µM) | 256 µg/mL (≈ 588 µM) | 0.25 µg/mL (≈ 0.574 µM) | 1 µg/mL (≈ 2.3 µM) |  |
| NCC[C@H](O)C(=O)N[C@@H]1C[C@H](N)[C@@H](O[C@H]2O[C@H](CN)[C@@H](O)[C@H](O)[C@H]2O)[C@H](O)[C@H]1O[C@H]1O[C@H](CO)[C@@H](O)[C@H](N)[C@H]1O [AMIKACIN] | 100% | 2 µg/mL (≈ 3.42 µM) | 16 µg/mL (≈ 27.3 µM) | 91.4% | 2 µg/mL (≈ 3.42 µM) | 8 µg/mL (≈ 13.7 µM) | 2 µg/mL (≈ 3.42 µM) | 4 µg/mL (≈ 6.83 µM) | 98.1% |
| CO/N=C(\C(=O)N[C@@H]1C(=O)N2C(C(=O)[O-])=C(C[N+]3(C)CCCC3)CS[C@H]12)c1csc(N)n1 [CEFEPIME] | 0% | 1 µg/mL (≈ 2.08 µM) | 256 µg/mL (≈ 533 µM) | 0% | 16 µg/mL (≈ 33.3 µM) | 256 µg/mL (≈ 533 µM) | 2 µg/mL (≈ 4.16 µM) | 32 µg/mL (≈ 66.6 µM) | 0% |
| CO/N=C(\C(=O)N[C@@H]1C(=O)N2C(C(=O)O)=C(COC(C)=O)CS[C@H]12)c1csc(N)n1 [CEFOTAXIME] | 0% | 8 µg/mL (≈ 17.6 µM) | 256 µg/mL (≈ 562 µM) | 0% | 256 µg/mL (≈ 562 µM) | 256 µg/mL (≈ 562 µM) | 16 µg/mL (≈ 35.1 µM) | 256 µg/mL (≈ 562 µM) | 0% |
| CO[C@@]1(NC(=O)Cc2cccs2)C(=O)N2C(C(=O)O)=C(COC(N)=O)CS[C@@H]21 [CEFOXITIN] | 0% | 2 µg/mL (≈ 4.68 µM) | ≥ 64 µg/mL | 74.1% | 2 µg/mL (≈ 4.68 µM) | ≥ 64 µg/mL | 2 µg/mL (≈ 4.68 µM) | 8 µg/mL (≈ 18.7 µM) | 71.1% |
| CC(C)(O/N=C(\C(=O)N[C@@H]1C(=O)N2C(C(=O)[O-])=C(C[n+]3ccccc3)CS[C@H]12)c1csc(N)n1)C(=O)O [CEFTAZIDIME] | 0% | 256 µg/mL (≈ 468 µM) | 256 µg/mL (≈ 468 µM) | 0% | 256 µg/mL (≈ 468 µM) | 256 µg/mL (≈ 468 µM) | 4 µg/mL (≈ 7.32 µM) | 16 µg/mL (≈ 29.3 µM) | 0% |
| O=C(O)c1cn(C2CC2)c2cc(N3CCNCC3)c(F)cc2c1=O [CIPROFLOXACIN] | 12.5% | 2 µg/mL (≈ 6.04 µM) | ≥ 16 µg/mL | 46.5% | ≥ 16 µg/mL | ≥ 16 µg/mL | ≥ 16 µg/mL | ≥ 16 µg/mL | 8.6% |
| C[C@@H](O)[C@H]1C(=O)N2C(C(=O)O)=C(SCCNC=N)C[C@H]12 [IMIPENEM ANHYDROUS] | 100% | 0.25 µg/mL (≈ 0.835 µM) | 0.25 µg/mL (≈ 0.835 µM) | 100% |  |  | 1 µg/mL (≈ 3.34 µM) | 4 µg/mL (≈ 13.4 µM) | 100% |
| C[C@H]1COc2c(N3CCN(C)CC3)c(F)cc3c(=O)c(C(=O)O)cn1c23.C[C@H]1COc2c(N3CCN(C)CC3)c(F)cc3c(=O)c(C(=O)O)cn1c23.O [LEVOFLOXACIN] | 12.5% | 2 µg/mL | ≥ 32 µg/mL | 48.2% | ≥ 32 µg/mL | ≥ 32 µg/mL | ≥ 32 µg/mL | ≥ 32 µg/mL | 8.6% |
| C[C@@H](O)[C@H]1C(=O)N2C(C(=O)O)=C(S[C@@H]3CN[C@H](C(=O)N(C)C)C3)[C@H](C)[C@H]12 [MEROPENEM] | 100% | 0.03 µg/mL (≈ 0.0782 µM) | 0.25 µg/mL (≈ 0.652 µM) | 100% | 0.03 µg/mL (≈ 0.0782 µM) | 0.25 µg/mL (≈ 0.652 µM) | 0.03 µg/mL (≈ 0.0782 µM) | 0.25 µg/mL (≈ 0.652 µM) | 100% |
